# From US20120207862A1, “ORAL INHIBITORS OF AGE-RELATED NADH OXIDASE (arNOX), COMPOSITIONS AND NATURAL SOURCES” (priority 2010, published 2012)
# Several values for one entry are separate records, joined by “and”; a condition that tells them apart may be missing. Equal values may be shown once. Entries after “also recorded” stand apart in the source; their conditions may differ. Read-outs that look alike come from different tables or passages of the source.
# Key:
# arNOX [1] = experiment: arNOX inhibition assay (superoxide-dependent reduction of ferric cytochrome c); format: biochemical, human
# Protocol: Reduction of ferric cytochrome c by superoxide was employed as a standard measure of superoxide formation (Mayo, L. A. and Curnutte, J., 1990, Meth. Enzyme. 186:567-575; Butler, J. et al., 1982, J. Biol. Chem. 257:10747-10750). This is a widely accepted method when coupled to superoxide dismutase inhibition for the measurement of superoxide generation. The assay consists of 150 μl buffy coats in PBSG buffer (8.06 g NaCl, 0.2 g KCl, 0.18 g Na2HPO4, 0.13 g CaCl2, 0.1. g MgCl2, 1.35 g glucose dissolved in 1000 ml deionized water, adjusted to pH 7.4, filtered and stored at 4° C.). Rates were determined using an SLM Aminco DW-2000 spectrophotometer (Milton Roy, Rochester, N.Y., USA) in the dual wave length mode of operation with continuous measurements over 1 min every 1.5 min. After 45 min, test compounds were added and the reaction was continued for an additional 45 min. After 45 min, a millimolar extinction coefficient of 19.1 cm^−1 was used for reduced ferricytochrome c. Extracts were made of the potentially inhibitory compounds in water unless otherwise indicated.
# Infusions are prepared by adding 125 mg material (for herbs or spices, dry weight) to 1 ml boiling water. The solutions are allowed to cool slowly and steep at room temperature overnight. Pure compounds (gallic acid, apigenin, derivatives of benzoic acid) are prepared as 100 mM stock solutions in water, ethanol or DMSO, depending on solubility in a particular liquid.
# Tinctures are prepared by adding […] of material (fresh weight) to 1 ml ethanol and allowed to steep overnight (or from about 3-30 hours, about 6-24, or about 12-20 or about 18 hours). Insoluble and particulate material is allowed to sediment, and the soluble material is decanted. Tinctures, infusions and stock solutions of pure compounds are tested undiluted, diluted 1:10, 1:100 and 1:1000 to determine EC50 (the dose which causes 50% inhibition of arNOX activity). For tinctures or infusions, aliquots of 60 μl are added to 2.5 ml arNOX assay. For stock solutions (undiluted or diluted), aliquots of 2.5 μl are added to 2.5 ml arNOX assay. For example, addition of an undiluted 100 mM stock solution results in a final concentration of 100 μM in the assay.
# arNOX [2] = tested on: T1, arNOX; experiment: as above; format: biochemical, human; settings: read-out: EC50 (dose which causes 50% inhibition of arNOX activity)
# T1 construct: other: infusion; human saliva
# arNOX [3] = settings: Morré et al., 2008, BioFactors 32:231-235; cited from earlier work
# Solubility in water = format: physicochemical
# salivary arNOX = experiment: Kinetics of salivary arNOX inhibition after oral administration to a volunteer; format: in vivo, human; settings: single oral dose at time 0 h, subject
# Protocol: To determine the kinetics of arNOX inhibition, capsules containing 350 to 700 mg of selected seasonings and active ingredients were administered orally to a volunteer and the arNOX activity of collected saliva was analyzed serially. arNOX activity of saliva and sera correlate closely (FIG. 14) such that salivary arNOX is reflective of the inhibition of serum arNOX.
compound,measurement,setting,value
"Cc1cc(C)cc(C(=O)O)c1 [3,5-dimethylbenzoic acid]",arNOX inhibition (in words),arNOX [1],most inhibitory
same,EC50,arNOX [2],0.2 µM
COC1=C(OC)C(=O)C(C/C=C(\C)CC/C=C(\C)CC/C=C(\C)CC/C=C(\C)CC/C=C(\C)CC/C=C(\C)CC/C=C(\C)CCC=C(C)C)=C(C)C1=O [CoQ8],inhibition of arNOX activity of aging cells,arNOX [3],inhibited
COC1=C(OC)C(=O)C(C/C=C(\C)CC/C=C(\C)CC/C=C(\C)CC/C=C(\C)CC/C=C(\C)CC/C=C(\C)CC/C=C(\C)CC/C=C(\C)CCC=C(C)C)=C(C)C1=O [CoQ9],inhibition of arNOX activity of aging cells,arNOX [3],inhibited
COC1=C(OC)C(=O)C(C/C=C(\C)CC/C=C(\C)CC/C=C(\C)CC/C=C(\C)CC/C=C(\C)CC/C=C(\C)CC/C=C(\C)CC/C=C(\C)CC/C=C(\C)CCC=C(C)C)=C(C)C1=O [CoQ10],inhibition of arNOX activity of aging cells,arNOX [3],inhibited
"Oc1ncnc2[nH]ncc12 [allopuranol, reference compound]",arNOX inhibition (in words),arNOX [1],inhibited arNOX to varying degrees
"O=c1cc(-c2ccc(O)cc2)oc2cc(O)cc(O)c12 [apigenin aglycone, apigenin]",inhibition of arNOX activity at 10 μM,"arNOX [1]; 10 μM, supplied as DMSO solution",inhibited arNOX activity
same,water solubility,Solubility in water,insoluble in water
same,water solubility,Solubility in water; listed as apigenin,low water solubility
"O=C(O)c1cc(O)c(O)c(O)c1 [gallic acid, 3,4,5-trihydroxybenzoic acid]",arNOX inhibition (in words),arNOX [1],active
same,effective final concentration,arNOX [1],0.14 μM and 10 ng/mL
same,maximum inhibition of salivary arNOX,salivary arNOX,84%
same,time of maximum inhibition of salivary arNOX,salivary arNOX,8 h
O[C@H]1[C@H](O)[C@@H](O)[C@H](O)[C@@H](O)[C@H]1O [inositol],arNOX inhibition (in words),arNOX [1],inhibited arNOX to varying degrees
O=P(O)(O)O[C@H]1[C@H](OP(=O)(O)O)[C@@H](OP(=O)(O)O)[C@H](OP(=O)(O)O)[C@@H](OP(=O)(O)O)[C@H]1OP(=O)(O)O [phytic acid],arNOX inhibition (in words),arNOX [1],inhibited arNOX to varying degrees
"OCc1ccccc1O[C@@H]1O[C@H](CO)[C@@H](O)[C@H](O)[C@H]1O [salicin, reference compound]",arNOX inhibition (in words),arNOX [1],inhibited arNOX to varying degrees
same,type of arNOX inhibition from kinetic data,arNOX [1]; FIG. 1,competitive inhibitor
(±)-catechin,arNOX inhibition (in words),arNOX [1],inhibits arNOX; also recorded: potent arNOX inhibitor
same,effective final concentration,arNOX [1],100 μM and 300 ng/mL
